Eight compounds from patent US9340590B2 (priority 2011, dated 2016) can be followed below.

Positions of bridges follow the written chain, without caps; N, C: chain ends. Non-standard residues stand in square brackets, D forms with d. Residues, ends and D or L forms follow the SMILES beside them. NMeW = CN[C@@H](Cc1c[nH]c2ccccc12)C(=O)O; NMeF = CN[C@@H](Cc1ccccc1)C(=O)O; Phg = N[C@H](C(=O)O)c1ccccc1

Holding throughout (assay): cell-based
The target in one experiment is hNav1.7 (Homo sapiens, UniProt Q15858). The format is cell-based. The conditions noted are these: Table 25; IonWorks Quattro, use; […]; read-out: IWQ Use Nav1.7.
Another experiment has as its target hNav1.5 (Homo sapiens, UniProt Q14524). The conditions noted are these: Table 25; IonWorks Quattro, use; […]; read-out: IWQ Use Nav1.5.
In a further experiment the target is hNav1.3 (Homo sapiens, UniProt Q9NY46). Particulars: Table 25; IonWorks Quattro, use; […]; read-out: IWQ Use Nav1.3.

hNav1.7, sequence (Q15858 whole entry, looked up): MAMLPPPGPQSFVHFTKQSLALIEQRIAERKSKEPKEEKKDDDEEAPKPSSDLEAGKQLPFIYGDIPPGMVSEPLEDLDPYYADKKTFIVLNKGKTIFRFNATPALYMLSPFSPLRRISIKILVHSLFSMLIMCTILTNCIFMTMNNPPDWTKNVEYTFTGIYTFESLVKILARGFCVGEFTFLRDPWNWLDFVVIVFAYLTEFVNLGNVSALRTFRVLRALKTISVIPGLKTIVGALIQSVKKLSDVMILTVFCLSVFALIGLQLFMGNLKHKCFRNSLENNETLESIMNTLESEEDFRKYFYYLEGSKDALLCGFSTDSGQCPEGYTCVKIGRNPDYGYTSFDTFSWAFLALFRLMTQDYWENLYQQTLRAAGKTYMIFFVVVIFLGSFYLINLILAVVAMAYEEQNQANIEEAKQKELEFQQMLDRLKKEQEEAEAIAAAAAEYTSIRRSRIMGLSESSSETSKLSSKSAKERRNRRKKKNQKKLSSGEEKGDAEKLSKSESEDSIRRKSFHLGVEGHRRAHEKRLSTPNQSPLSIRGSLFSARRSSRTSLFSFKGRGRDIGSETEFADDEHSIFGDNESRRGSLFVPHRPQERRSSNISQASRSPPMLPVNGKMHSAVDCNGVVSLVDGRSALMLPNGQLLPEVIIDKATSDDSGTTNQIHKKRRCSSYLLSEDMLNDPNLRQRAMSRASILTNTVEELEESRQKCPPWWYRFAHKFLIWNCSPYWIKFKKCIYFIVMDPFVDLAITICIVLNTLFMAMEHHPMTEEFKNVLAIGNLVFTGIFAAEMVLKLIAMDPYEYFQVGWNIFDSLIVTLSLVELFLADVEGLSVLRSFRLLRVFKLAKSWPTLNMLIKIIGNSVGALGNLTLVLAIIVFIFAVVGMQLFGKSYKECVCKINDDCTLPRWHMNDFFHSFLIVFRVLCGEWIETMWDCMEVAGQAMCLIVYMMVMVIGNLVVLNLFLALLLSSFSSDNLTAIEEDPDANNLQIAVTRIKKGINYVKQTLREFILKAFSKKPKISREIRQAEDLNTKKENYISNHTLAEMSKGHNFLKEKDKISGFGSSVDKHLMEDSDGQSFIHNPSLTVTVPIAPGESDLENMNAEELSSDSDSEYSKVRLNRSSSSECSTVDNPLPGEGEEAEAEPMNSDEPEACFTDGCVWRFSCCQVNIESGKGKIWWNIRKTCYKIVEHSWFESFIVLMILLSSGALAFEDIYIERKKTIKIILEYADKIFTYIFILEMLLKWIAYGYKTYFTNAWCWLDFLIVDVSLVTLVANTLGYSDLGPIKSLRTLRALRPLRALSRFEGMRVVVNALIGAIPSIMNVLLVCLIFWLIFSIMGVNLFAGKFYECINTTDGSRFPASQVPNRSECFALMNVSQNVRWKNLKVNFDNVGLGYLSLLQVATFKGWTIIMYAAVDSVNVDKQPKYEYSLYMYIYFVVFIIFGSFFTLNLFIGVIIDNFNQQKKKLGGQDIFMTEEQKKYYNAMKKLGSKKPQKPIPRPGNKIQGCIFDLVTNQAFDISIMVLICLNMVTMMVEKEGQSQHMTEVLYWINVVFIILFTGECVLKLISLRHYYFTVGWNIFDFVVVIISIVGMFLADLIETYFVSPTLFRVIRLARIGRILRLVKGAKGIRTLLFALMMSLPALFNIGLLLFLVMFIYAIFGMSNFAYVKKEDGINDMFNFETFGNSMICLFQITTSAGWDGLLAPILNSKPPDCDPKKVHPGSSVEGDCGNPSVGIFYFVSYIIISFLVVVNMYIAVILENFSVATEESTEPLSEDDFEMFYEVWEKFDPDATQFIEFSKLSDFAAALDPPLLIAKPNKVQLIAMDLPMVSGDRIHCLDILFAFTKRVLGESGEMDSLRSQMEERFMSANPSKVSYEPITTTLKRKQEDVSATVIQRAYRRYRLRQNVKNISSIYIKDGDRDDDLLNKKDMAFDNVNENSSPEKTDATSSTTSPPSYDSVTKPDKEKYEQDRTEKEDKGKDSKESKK
hNav1.5, sequence (Q14524 whole entry, looked up): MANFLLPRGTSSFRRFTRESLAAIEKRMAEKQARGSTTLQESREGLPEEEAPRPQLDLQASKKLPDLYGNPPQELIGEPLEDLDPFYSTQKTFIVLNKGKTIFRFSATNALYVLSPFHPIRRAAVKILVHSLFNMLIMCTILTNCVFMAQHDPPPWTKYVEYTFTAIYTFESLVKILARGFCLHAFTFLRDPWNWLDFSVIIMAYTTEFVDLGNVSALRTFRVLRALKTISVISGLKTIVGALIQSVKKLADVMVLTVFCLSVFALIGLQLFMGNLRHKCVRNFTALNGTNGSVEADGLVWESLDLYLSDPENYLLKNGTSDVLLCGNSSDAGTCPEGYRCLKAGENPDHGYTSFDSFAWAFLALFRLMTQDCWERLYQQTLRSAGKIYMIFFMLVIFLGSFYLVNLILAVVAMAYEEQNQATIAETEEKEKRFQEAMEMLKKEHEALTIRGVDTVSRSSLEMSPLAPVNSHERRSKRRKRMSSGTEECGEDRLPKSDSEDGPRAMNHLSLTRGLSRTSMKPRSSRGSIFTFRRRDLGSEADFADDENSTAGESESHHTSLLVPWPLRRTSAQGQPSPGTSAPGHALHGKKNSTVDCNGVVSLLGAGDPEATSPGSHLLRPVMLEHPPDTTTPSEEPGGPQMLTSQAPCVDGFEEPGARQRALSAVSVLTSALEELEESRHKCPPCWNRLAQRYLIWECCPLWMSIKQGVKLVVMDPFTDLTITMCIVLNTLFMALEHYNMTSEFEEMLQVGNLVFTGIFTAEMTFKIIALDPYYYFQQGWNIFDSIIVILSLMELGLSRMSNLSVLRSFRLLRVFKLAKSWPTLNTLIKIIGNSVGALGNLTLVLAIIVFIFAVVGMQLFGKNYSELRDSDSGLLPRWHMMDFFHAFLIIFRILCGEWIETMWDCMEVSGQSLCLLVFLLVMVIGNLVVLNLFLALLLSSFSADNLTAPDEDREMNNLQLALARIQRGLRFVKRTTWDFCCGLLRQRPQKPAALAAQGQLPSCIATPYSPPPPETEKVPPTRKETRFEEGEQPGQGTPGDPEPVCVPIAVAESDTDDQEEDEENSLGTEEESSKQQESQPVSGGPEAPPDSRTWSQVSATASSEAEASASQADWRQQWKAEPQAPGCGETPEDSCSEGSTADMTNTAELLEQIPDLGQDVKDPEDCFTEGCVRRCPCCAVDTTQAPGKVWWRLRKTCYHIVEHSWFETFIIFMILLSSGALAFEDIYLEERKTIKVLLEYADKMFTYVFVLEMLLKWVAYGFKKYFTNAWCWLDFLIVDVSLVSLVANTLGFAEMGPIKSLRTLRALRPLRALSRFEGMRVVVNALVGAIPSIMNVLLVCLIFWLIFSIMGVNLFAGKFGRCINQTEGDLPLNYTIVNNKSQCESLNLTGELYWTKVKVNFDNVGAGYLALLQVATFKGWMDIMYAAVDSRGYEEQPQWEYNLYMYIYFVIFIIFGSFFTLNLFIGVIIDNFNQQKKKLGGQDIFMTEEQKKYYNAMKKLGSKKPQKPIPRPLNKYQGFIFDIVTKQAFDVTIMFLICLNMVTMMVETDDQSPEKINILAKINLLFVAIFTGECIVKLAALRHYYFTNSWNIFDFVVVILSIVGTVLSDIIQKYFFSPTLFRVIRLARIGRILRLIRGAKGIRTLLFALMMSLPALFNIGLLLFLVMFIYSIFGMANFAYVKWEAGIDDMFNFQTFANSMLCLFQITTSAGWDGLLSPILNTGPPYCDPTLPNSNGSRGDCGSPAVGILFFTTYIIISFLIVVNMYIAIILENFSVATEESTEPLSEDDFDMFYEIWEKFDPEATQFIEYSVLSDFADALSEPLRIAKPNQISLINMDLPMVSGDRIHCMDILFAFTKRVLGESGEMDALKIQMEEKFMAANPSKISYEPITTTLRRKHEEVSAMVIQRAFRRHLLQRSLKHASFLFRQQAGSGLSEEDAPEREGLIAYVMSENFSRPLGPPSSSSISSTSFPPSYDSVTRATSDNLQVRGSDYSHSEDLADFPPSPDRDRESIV

Consider `CC[C@H](C)[C@H](NC(=O)[C@H](CCCCN)NC(=O)[C@@H]1CSSC[C@@H]2NC(=O)[C@H](CCCCN)NC(=O)[C@H](CC(=O)O)NC(=O)[C@H](CC(N)=O)NC(=O)[C@H](CC(=O)O)NC(=O)[C@@H]3CCCN3C(=O)[C@H]([C@@H](C)CC)NC(=O)[C@@H]3CSSC[C@H](NC(=O)[C@H](C(C)C)NC(=O)[C@H](CC(C)C)NC(=O)[C@H](CC(N)=O)NC(=O)[C@@H]4CCCN4C(=O)[C@H](CCCNC(=N)N)NC(=O)[C@H](CSSC[C@H](NC(=O)[C@@H](N)CC(=O)O)C(=O)N[C@@H](CC(C)C)C(=O)NCC(=O)N[C@@H](Cc4ccccc4)C(=O)N[C@@H](CCSC)C(=O)N[C@@H](CCCNC(=N)N)C(=O)N[C@@H](CCCCN)C(=O)N3)NC2=O)C(=O)N[C@@H](CO)C(=O)N[C@@H](CCCNC(=N)N)C(=O)N[C@@H]([C@@H](C)O)C(=O)N[C@@H](Cc2c[nH]cn2)C(=O)N[C@@H](CCCCN)C(=O)N[C@@H](Cc2c[nH]c3ccccc23)C(=O)N1)C(=O)N[C@H](C(=O)N[C@@H](Cc1ccccc1)C(N)=O)C(C)C` [compound 367] (H-DCLGFMRKCIPDNDKCCRPNLVCSRTHKWCKIVF-NH2; disulfide 2-17, 9-23, 16-30), for which the values for the IC50 at hNav1.7, on hNav1.5 and on hNav1.3 were 0.07 µM, 8.71 µM and 0.06 µM, respectively.
The like results for `CC[C@H](C)[C@@H]1NC(=O)[C@@H]2CSSC[C@@H]3NC(=O)[C@H](C(C)C)NC(=O)[C@H](CC(C)C)NC(=O)[C@H](CC(N)=O)NC(=O)[C@@H]4CCCN4C(=O)[C@H](CCCNC(=N)N)NC(=O)[C@H](CSSC[C@H](NC(=O)[C@@H](N)CC(=O)O)C(=O)N[C@@H](CC(C)C)C(=O)NCC(=O)N[C@@H](Cc4ccccc4)C(=O)N[C@@H](CCSC)C(=O)N[C@@H](CCCNC(=N)N)C(=O)N[C@@H](CCCCN)C(=O)N2)NC(=O)[C@H](CSSC[C@@H](C(=O)N[C@@H](CCCCN)C(=O)N[C@@H](CCSC)C(=O)N[C@H](C(=O)N[C@@H](Cc2ccccc2)C(N)=O)C(C)C)NC(=O)[C@H](Cc2c[nH]c4ccccc24)NC(=O)[C@H](CCCCN)NC(=O)[C@H](Cc2c[nH]cn2)NC(=O)[C@H]([C@@H](C)O)NC(=O)[C@H](CCCNC(=N)N)NC(=O)[C@H](CO)NC3=O)NC(=O)[C@H](CCCCN)NC(=O)[C@H](CC(=O)O)NC(=O)[C@H](CC(N)=O)NC(=O)[C@H](CC(=O)O)NC(=O)[C@@H]2CCCN2C1=O` [compound 368] (H-DCLGFMRKCIPDNDKCCRPNLVCSRTHKWCKMVF-NH2; disulfide 2-17, 9-23, 16-30) were, in that order, 0.35 µM, 6.21 µM and 0.14 µM.
On to `CC[C@H](C)[C@@H]1NC(=O)[C@@H]2CSSC[C@@H]3NC(=O)[C@H](C(C)C)NC(=O)[C@H](CC(C)C)NC(=O)[C@H](CC(N)=O)NC(=O)[C@@H]4CCCN4C(=O)[C@H](CCCNC(=N)N)NC(=O)[C@H](CSSC[C@H](NC(=O)[C@@H](N)CC(=O)O)C(=O)N[C@@H](CC(C)C)C(=O)NCC(=O)N[C@@H](Cc4ccccc4)C(=O)N[C@@H](CCSC)C(=O)N[C@@H](CCCNC(=N)N)C(=O)N[C@@H](CCCCN)C(=O)N2)NC(=O)[C@H](CSSC[C@@H](C(=O)N[C@@H](CCCCN)C(=O)N[C@H](C(=O)N[C@H](C(=O)N[C@@H](Cc2ccccc2)C(N)=O)C(C)C)[C@@H](C)O)NC(=O)[C@H](Cc2c[nH]c4ccccc24)NC(=O)[C@H](CCCCN)NC(=O)[C@H](Cc2c[nH]cn2)NC(=O)[C@H]([C@@H](C)O)NC(=O)[C@H](CCCNC(=N)N)NC(=O)[C@H](CO)NC3=O)NC(=O)[C@H](CCCCN)NC(=O)[C@H](CC(=O)O)NC(=O)[C@H](CC(N)=O)NC(=O)[C@H](CC(=O)O)NC(=O)[C@@H]2CCCN2C1=O` [compound 369] (H-DCLGFMRKCIPDNDKCCRPNLVCSRTHKWCKTVF-NH2; disulfide 2-17, 9-23, 16-30), for which the IC50 on hNav1.7 was 3.54 µM; on hNav1.5, 11.1 µM; on hNav1.3 it was 3.29 µM.
For the compound `CC[C@H](C)[C@@H]1NC(=O)[C@@H]2CSSC[C@@H]3NC(=O)[C@H](C(C)C)NC(=O)[C@H](CC(C)C)NC(=O)[C@H](CC(N)=O)NC(=O)[C@@H]4CCCN4C(=O)[C@H](CCCNC(=N)N)NC(=O)[C@H](CSSC[C@H](NC(=O)[C@@H](N)CC(=O)O)C(=O)N[C@@H](CC(C)C)C(=O)NCC(=O)N[C@@H](Cc4ccccc4)C(=O)N[C@@H](CCSC)C(=O)N[C@@H](CCCNC(=N)N)C(=O)N[C@@H](CCCCN)C(=O)N2)NC(=O)[C@H](CSSC[C@@H](C(=O)N[C@@H](CCCCN)C(=O)N(C)[C@@H](Cc2ccccc2)C(=O)N[C@H](C(=O)N[C@@H](Cc2ccccc2)C(N)=O)C(C)C)NC(=O)[C@H](Cc2c[nH]c4ccccc24)NC(=O)[C@H](CCCCN)NC(=O)[C@H](Cc2c[nH]cn2)NC(=O)[C@H]([C@@H](C)O)NC(=O)[C@H](CCCNC(=N)N)NC(=O)[C@H](CO)NC3=O)NC(=O)[C@H](CCCCN)NC(=O)[C@H](CC(=O)O)NC(=O)[C@H](CC(N)=O)NC(=O)[C@H](CC(=O)O)NC(=O)[C@@H]2CCCN2C1=O` [compound 370] (H-DCLGFMRKCIPDNDKCCRPNLVCSRTHKWCK[NMeF]VF-NH2; disulfide 2-17, 9-23, 16-30), the IC50 at hNav1.7, on hNav1.5 and at hNav1.3 was more than 5 µM each time.
`CC[C@H](C)[C@@H]1NC(=O)[C@@H]2CSSC[C@@H]3NC(=O)[C@H](C(C)C)NC(=O)[C@H](CC(C)C)NC(=O)[C@H](CC(N)=O)NC(=O)[C@@H]4CCCN4C(=O)[C@H](CCCNC(=N)N)NC(=O)[C@H](CSSC[C@H](NC(=O)[C@@H](N)CC(=O)O)C(=O)N[C@@H](CC(C)C)C(=O)NCC(=O)N[C@@H](Cc4ccccc4)C(=O)N[C@@H](CCSC)C(=O)N[C@@H](CCCNC(=N)N)C(=O)N[C@@H](CCCCN)C(=O)N2)NC(=O)[C@H](CSSC[C@@H](C(=O)N[C@@H](CCCCN)C(=O)N(C)[C@@H](Cc2c[nH]c4ccccc24)C(=O)N[C@H](C(=O)N[C@@H](Cc2ccccc2)C(N)=O)C(C)C)NC(=O)[C@H](Cc2c[nH]c4ccccc24)NC(=O)[C@H](CCCCN)NC(=O)[C@H](Cc2c[nH]cn2)NC(=O)[C@H]([C@@H](C)O)NC(=O)[C@H](CCCNC(=N)N)NC(=O)[C@H](CO)NC3=O)NC(=O)[C@H](CCCCN)NC(=O)[C@H](CC(=O)O)NC(=O)[C@H](CC(N)=O)NC(=O)[C@H](CC(=O)O)NC(=O)[C@@H]2CCCN2C1=O` [compound 371] (H-DCLGFMRKCIPDNDKCCRPNLVCSRTHKWCK[NMeW]VF-NH2; disulfide 2-17, 9-23, 16-30): the IC50 at hNav1.7 is 4.88 µM; on hNav1.5, more than 5 µM; at hNav1.3, more than 5 µM.
In the case of `CC[C@H](C)[C@@H]1NC(=O)[C@@H]2CSSC[C@@H]3NC(=O)[C@H](C(C)C)NC(=O)[C@H](CC(C)C)NC(=O)[C@H](CC(N)=O)NC(=O)[C@@H]4CCCN4C(=O)[C@H](CCCNC(=N)N)NC(=O)[C@H](CSSC[C@H](NC(=O)[C@@H](N)CC(=O)O)C(=O)N[C@@H](CC(C)C)C(=O)NCC(=O)N[C@@H](Cc4ccccc4)C(=O)N[C@@H](CCSC)C(=O)N[C@@H](CCCNC(=N)N)C(=O)N[C@@H](CCCCN)C(=O)N2)NC(=O)[C@H](CSSC[C@@H](C(=O)N[C@@H](CCCCN)C(=O)N[C@H](C(=O)N[C@H](C(=O)N[C@@H](Cc2ccccc2)C(N)=O)C(C)C)C(C)C)NC(=O)[C@H](Cc2c[nH]c4ccccc24)NC(=O)[C@H](CCCCN)NC(=O)[C@H](Cc2c[nH]cn2)NC(=O)[C@H]([C@@H](C)O)NC(=O)[C@H](CCCNC(=N)N)NC(=O)[C@H](CO)NC3=O)NC(=O)[C@H](CCCCN)NC(=O)[C@H](CC(=O)O)NC(=O)[C@H](CC(N)=O)NC(=O)[C@H](CC(=O)O)NC(=O)[C@@H]2CCCN2C1=O` [compound 372] (H-DCLGFMRKCIPDNDKCCRPNLVCSRTHKWCKVVF-NH2; disulfide 2-17, 9-23, 16-30), the figures for the IC50 on hNav1.7, at hNav1.5 and on hNav1.3 were 0.15 µM, 14.8 µM and 0.08 µM, respectively.
The like results for `CC[C@H](C)[C@@H]1NC(=O)[C@@H]2CSSC[C@@H]3NC(=O)[C@H](C(C)C)NC(=O)[C@H](CC(C)C)NC(=O)[C@H](CC(N)=O)NC(=O)[C@@H]4CCCN4C(=O)[C@H](CCCNC(=N)N)NC(=O)[C@H](CSSC[C@H](NC(=O)[C@@H](N)CC(=O)O)C(=O)N[C@@H](CC(C)C)C(=O)NCC(=O)N[C@@H](Cc4ccccc4)C(=O)N[C@@H](CCSC)C(=O)N[C@@H](CCCNC(=N)N)C(=O)N[C@@H](CCCCN)C(=O)N2)NC(=O)[C@H](CSSC[C@@H](C(=O)N[C@@H](CCCCN)C(=O)N[C@@H](CC(C)C)C(=O)N[C@H](C(=O)N[C@@H](Cc2ccccc2)C(N)=O)C(C)C)NC(=O)[C@H](Cc2c[nH]c4ccccc24)NC(=O)[C@H](CCCCN)NC(=O)[C@H](Cc2c[nH]cn2)NC(=O)[C@H]([C@@H](C)O)NC(=O)[C@H](CCCNC(=N)N)NC(=O)[C@H](CO)NC3=O)NC(=O)[C@H](CCCCN)NC(=O)[C@H](CC(=O)O)NC(=O)[C@H](CC(N)=O)NC(=O)[C@H](CC(=O)O)NC(=O)[C@@H]2CCCN2C1=O` [compound 373] (H-DCLGFMRKCIPDNDKCCRPNLVCSRTHKWCKLVF-NH2; disulfide 2-17, 9-23, 16-30) were, in that order, 0.12 µM, 8.83 µM and 0.08 µM.
The like results for `CC[C@H](C)[C@@H]1NC(=O)[C@@H]2CSSC[C@@H]3NC(=O)[C@H](C(C)C)NC(=O)[C@H](CC(C)C)NC(=O)[C@H](CC(N)=O)NC(=O)[C@@H]4CCCN4C(=O)[C@H](CCCNC(=N)N)NC(=O)[C@H](CSSC[C@H](NC(=O)[C@@H](N)CC(=O)O)C(=O)N[C@@H](CC(C)C)C(=O)NCC(=O)N[C@@H](Cc4ccccc4)C(=O)N[C@@H](CCSC)C(=O)N[C@@H](CCCNC(=N)N)C(=O)N[C@@H](CCCCN)C(=O)N2)NC(=O)[C@H](CSSC[C@@H](C(=O)N[C@@H](CCCCN)C(=O)N[C@H](C(=O)N[C@H](C(=O)N[C@@H](Cc2ccccc2)C(N)=O)C(C)C)c2ccccc2)NC(=O)[C@H](Cc2c[nH]c4ccccc24)NC(=O)[C@H](CCCCN)NC(=O)[C@H](Cc2c[nH]cn2)NC(=O)[C@H]([C@@H](C)O)NC(=O)[C@H](CCCNC(=N)N)NC(=O)[C@H](CO)NC3=O)NC(=O)[C@H](CCCCN)NC(=O)[C@H](CC(=O)O)NC(=O)[C@H](CC(N)=O)NC(=O)[C@H](CC(=O)O)NC(=O)[C@@H]2CCCN2C1=O` [compound 374] (H-DCLGFMRKCIPDNDKCCRPNLVCSRTHKWCK[Phg]VF-NH2; disulfide 2-17, 9-23, 16-30) were, in that order, 0.14 µM, 7.06 µM and 0.1 µM.
